According to PubChem BioAssay (NCI):
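In this assay, cells in 96-well plates receive the compound at five concentrations for 48 hours. Endpoints are linearly interpolated between the surrounding concentrations. GI50 marks 50% less growth. Definition used: TGI = concentration required for complete inhibition of growth.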

How the values were obtained:
Experiment in all cases: NCI-60 cell line screen, 48 h
A498 renal = system: A498 renal
HCC-2998 colon = system: HCC-2998 colon
IGROV1 ovarian = system: IGROV1 ovarian
LOX IMVI melanoma = system: LOX IMVI melanoma
MDA-MB-231 breast = system: MDA-MB-231 breast
NCI-H226 lung = system: NCI-H226 lung
NCI-H23 lung = system: NCI-H23 lung
NCI/ADR-RES ovarian = system: NCI/ADR-RES ovarian
TK-10 renal = system: TK-10 renal
UACC-257 melanoma = system: UACC-257 melanoma

CCNCCNc1cc(-c2ccc(F)cc2)c(C#N)c2nc3ccccc3n12
GI50 (A498 renal): 4.79 µM
TGI (A498 renal): 17.2 µM
GI50 (HCC-2998 colon): 3.83 µM
TGI (HCC-2998 colon): 14.2 µM
GI50 (IGROV1 ovarian): 7.26 µM
TGI (IGROV1 ovarian): 22.8 µM
GI50 (LOX IMVI melanoma): 1.82 µM
TGI (LOX IMVI melanoma): 3.45 µM
GI50 (MDA-MB-231 breast): 2.73 µM
TGI (MDA-MB-231 breast): 7.69 µM
GI50 (NCI-H226 lung): 12 µM
TGI (NCI-H226 lung): 27 µM
GI50 (NCI-H23 lung): 13.7 µM
TGI (NCI-H23 lung): 29 µM
GI50 (NCI/ADR-RES ovarian): 6.34 µM
TGI (NCI/ADR-RES ovarian): 25.1 µM
GI50 (TK-10 renal): 2.33 µM
TGI (TK-10 renal): 8.45 µM
GI50 (UACC-257 melanoma): 2.1 µM
TGI (UACC-257 melanoma): 3.82 µM

COc1cc(C2C(C#N)=C(N)OC3=C2C(=O)c2ccccc2C3=O)cc(OC)c1OC (stereo not drawn)
GI50 (A498 renal): 0.327 µM
TGI (A498 renal): 11.8 µM
GI50 (HCC-2998 colon): 2.52 µM
TGI (HCC-2998 colon): 18.7 µM
GI50 (IGROV1 ovarian): 2.24 µM
TGI (IGROV1 ovarian): 19.2 µM
GI50 (LOX IMVI melanoma): 0.629 µM
TGI (LOX IMVI melanoma): 14 µM
GI50 (MDA-MB-231 breast): 3.53 µM
TGI (MDA-MB-231 breast): 41.7 µM
GI50 (NCI-H226 lung): 1.39 µM
TGI (NCI-H226 lung): 23.7 µM
GI50 (NCI-H23 lung): 0.713 µM
TGI (NCI-H23 lung): 4.34 µM
GI50 (NCI/ADR-RES ovarian): 3.23 µM
TGI (NCI/ADR-RES ovarian): 22.5 µM
GI50 (TK-10 renal): 10 µM
TGI (TK-10 renal): > 100 µM
GI50 (UACC-257 melanoma): 1.18 µM
TGI (UACC-257 melanoma): 13.3 µM

N#Cc1nc(-c2ccccc2)oc1S(=O)(=O)N1CCOCC1
GI50 (A498 renal): 15.6 µM
TGI (A498 renal): 32 µM
GI50 (HCC-2998 colon): 17.3 µM
TGI (HCC-2998 colon): 33.7 µM
GI50 (IGROV1 ovarian): 8 µM
TGI (IGROV1 ovarian): 23.2 µM
GI50 (LOX IMVI melanoma): 1.46 µM
TGI (LOX IMVI melanoma): 2.91 µM
GI50 (MDA-MB-231 breast): 14.1 µM
TGI (MDA-MB-231 breast): 29.9 µM
GI50 (NCI-H226 lung): 3.67 µM
TGI (NCI-H226 lung): 16.1 µM
GI50 (NCI-H23 lung): 8.6 µM
TGI (NCI-H23 lung): 26 µM
GI50 (NCI/ADR-RES ovarian): 14.8 µM
TGI (NCI/ADR-RES ovarian): 84.2 µM
GI50 (TK-10 renal): 6.25 µM
TGI (TK-10 renal): 19.2 µM
GI50 (UACC-257 melanoma): 4.74 µM
TGI (UACC-257 melanoma): 19 µM

COc1ccc2c3c(c(OCCCN(C)C)nc2c1)-c1ccc(Cl)cc1C3=O
GI50 (A498 renal): 5.66 µM
TGI (A498 renal): 16.5 µM
GI50 (HCC-2998 colon): 5.19 µM
TGI (HCC-2998 colon): 21 µM
GI50 (IGROV1 ovarian): 1.73 µM
TGI (IGROV1 ovarian): 25.9 µM
GI50 (LOX IMVI melanoma): 4.58 µM
TGI (LOX IMVI melanoma): 19.4 µM
GI50 (MDA-MB-231 breast): 4.26 µM
TGI (MDA-MB-231 breast): 23.7 µM
GI50 (NCI-H226 lung): 3.52 µM
TGI (NCI-H226 lung): 21.7 µM
GI50 (NCI-H23 lung): 11 µM
TGI (NCI-H23 lung): 25.3 µM
GI50 (NCI/ADR-RES ovarian): 4.79 µM
TGI (NCI/ADR-RES ovarian): 26 µM
GI50 (TK-10 renal): 5.39 µM
TGI (TK-10 renal): 15.3 µM
GI50 (UACC-257 melanoma): 16.4 µM
TGI (UACC-257 melanoma): 33 µM

CC(=O)N1CC(F)(F)c2c(Sc3ncc(N4CCC5(CC4)COC[C@H]5N)nc3N)cccc21
GI50 (A498 renal): 0.402 µM
TGI (A498 renal): 4.18 µM
GI50 (HCC-2998 colon): 28.3 µM
TGI (HCC-2998 colon): 94.1 µM
GI50 (IGROV1 ovarian): 2.47 µM
TGI (IGROV1 ovarian): 86.9 µM
GI50 (LOX IMVI melanoma): 16.6 µM
TGI (LOX IMVI melanoma): 32.1 µM
GI50 (MDA-MB-231 breast): 17.3 µM
TGI (MDA-MB-231 breast): 41.5 µM
GI50 (NCI-H226 lung): 20.9 µM
TGI (NCI-H226 lung): > 100 µM
GI50 (NCI-H23 lung): 3.35 µM
TGI (NCI-H23 lung): > 100 µM
GI50 (NCI/ADR-RES ovarian): 27.6 µM
TGI (NCI/ADR-RES ovarian): > 100 µM
GI50 (TK-10 renal): 0.991 µM
TGI (TK-10 renal): 35.8 µM
GI50 (UACC-257 melanoma): 22.8 µM
TGI (UACC-257 melanoma): 62 µM

CC[C@H](C)[C@H](NC(=O)C12C3C4C1C1C2C3C41NC(C)=O)C(=O)N(C)[C@H](C[C@@H](OC(C)=O)c1nc(C(=O)N[C@@H](Cc2ccccc2)C[C@H](C)C(=O)OC)cs1)C(C)C (stereo partly drawn)
GI50 (A498 renal): 0.503 µM
TGI (A498 renal): 10.2 µM
GI50 (HCC-2998 colon): 0.279 µM
TGI (HCC-2998 colon): > 14.3 µM
GI50 (IGROV1 ovarian): 0.593 µM
TGI (IGROV1 ovarian): > 14.3 µM
GI50 (LOX IMVI melanoma): 0.231 µM
TGI (LOX IMVI melanoma): > 14.3 µM
GI50 (MDA-MB-231 breast): 0.435 µM
TGI (MDA-MB-231 breast): > 14.3 µM
GI50 (NCI-H226 lung): > 9.71 µM
TGI (NCI-H226 lung): > 14.3 µM
GI50 (NCI-H23 lung): 0.884 µM
TGI (NCI-H23 lung): > 14.3 µM
GI50 (NCI/ADR-RES ovarian): > 14.3 µM
TGI (NCI/ADR-RES ovarian): > 14.3 µM
GI50 (TK-10 renal): 1.11 µM
TGI (TK-10 renal): > 14.3 µM
GI50 (UACC-257 melanoma): 0.563 µM
TGI (UACC-257 melanoma): > 14.3 µM

Oc1ccccc1-n1c(-c2ccccc2)ccc1-c1ccccc1
GI50 (A498 renal): 7.49 µM
TGI (A498 renal): 35.8 µM
GI50 (HCC-2998 colon): 11.2 µM
TGI (HCC-2998 colon): 29.2 µM
GI50 (IGROV1 ovarian): 4.1 µM
TGI (IGROV1 ovarian): 19.4 µM
GI50 (LOX IMVI melanoma): 6.1 µM
TGI (LOX IMVI melanoma): 20.5 µM
GI50 (MDA-MB-231 breast): 4.21 µM
TGI (MDA-MB-231 breast): 22.1 µM
GI50 (NCI-H226 lung): 8.69 µM
TGI (NCI-H226 lung): 21.9 µM
GI50 (NCI-H23 lung): 4.79 µM
TGI (NCI-H23 lung): 33.3 µM
GI50 (NCI/ADR-RES ovarian): 5.13 µM
TGI (NCI/ADR-RES ovarian): 23.1 µM
GI50 (TK-10 renal): 11.1 µM
TGI (TK-10 renal): 24.1 µM
GI50 (UACC-257 melanoma): 4.2 µM
TGI (UACC-257 melanoma): 27.3 µM

Cn1c(=O)c2[nH]c(COc3ccc(C(C)(C)C)cc3)nc2n(C)c1=O
GI50 (A498 renal): 4.94 µM
TGI (A498 renal): 60.1 µM
GI50 (HCC-2998 colon): 16.8 µM
TGI (HCC-2998 colon): > 100 µM
GI50 (IGROV1 ovarian): 14.1 µM
TGI (IGROV1 ovarian): 44.5 µM
GI50 (LOX IMVI melanoma): 19.9 µM
TGI (LOX IMVI melanoma): > 100 µM
GI50 (MDA-MB-231 breast): 41.4 µM
TGI (MDA-MB-231 breast): > 100 µM
GI50 (NCI-H226 lung): 25.6 µM
TGI (NCI-H226 lung): > 100 µM
GI50 (NCI-H23 lung): 5.29 µM
TGI (NCI-H23 lung): > 100 µM
GI50 (NCI/ADR-RES ovarian): 8.04 µM
TGI (NCI/ADR-RES ovarian): 60.6 µM
GI50 (TK-10 renal): 23.9 µM
TGI (TK-10 renal): 99.6 µM
GI50 (UACC-257 melanoma): 6.03 µM
TGI (UACC-257 melanoma): 31.6 µM

FC(F)(F)c1ccc(-c2cnc(Br)nc2NC2CCCCCC2)cc1
GI50 (A498 renal): 40 µM
TGI (A498 renal): > 100 µM
GI50 (HCC-2998 colon): > 100 µM
TGI (HCC-2998 colon): > 100 µM
GI50 (IGROV1 ovarian): > 100 µM
TGI (IGROV1 ovarian): > 100 µM
GI50 (MDA-MB-231 breast): 12.3 µM
TGI (MDA-MB-231 breast): > 100 µM
GI50 (NCI-H226 lung): 24.6 µM
TGI (NCI-H226 lung): > 100 µM
GI50 (NCI-H23 lung): 32.9 µM
TGI (NCI-H23 lung): > 100 µM
GI50 (NCI/ADR-RES ovarian): 88.9 µM
TGI (NCI/ADR-RES ovarian): > 100 µM
GI50 (TK-10 renal): > 100 µM
TGI (TK-10 renal): > 100 µM
GI50 (UACC-257 melanoma): 63.4 µM
TGI (UACC-257 melanoma): > 100 µM
